Assay results from patent US20020015942A1, “Method for cancer screening” (priority 1996, published 2002).

Tests used:
A10 cells [1] = conditions: hydrogen peroxide-induced apoptotic cells
Experimental: Electron microscopy: For studying endoapoptosis in transformed foci, NIH3T3 cells were grown on Thermanox plastic coverslips and the cells were processed as monolayer by fixation with 2% glutaraldehyde in 0.1 M cacodylate buffer, pH 7.3, overnight at 5° C., and post-fixed with 1% osmium tetroxide acid. Cells were in block stained overnight in 0.5% aqueous uranyl acetate, dehydrated in acetone and embedded in Epon resin. Thin sections were cut, stained with uranyl acetate and lead citrate and viewed in a Philips 300 electron microscope. In some cases the monolayer of cells were scraped with rubber policeman after fixation and pelleted and processed for sectioning as above.

A10 cells [2] = system: A10 cells
Experimental: A10 cells were stained with acridine orange at different times after exposure to hydrogen peroxide (0.2 mM) and at least 500 cells were scored at each time interval to obtain the above graph. Lines 1-4 represent the frequency of apoptotic nuclei having characteristic fluorescence patterns.
Acridine orange and DAPI staining: Cells grown on glass coverslips were stained for 3-4 minutes in 100 μg/ml acridine orange (Sigma Chemicals Ltd) dissolved in HBSS; coverslips were rinsed briefly in HBSS and mounted in HBSS [19]. Cells were examined immediately in a Zeiss Axioskop fluorescence microscope equipped with filter #9 and epi-illumination. Double stranded DNA fluoresces green while single-stranded RNA and DNA fluoresce red after staining with acridine orange. In most of the experiments, endoapoptosis was scored by the presence of the endoapoptotic nuclei (mini cells) in very early (bright green fluorescence), mid phase (red fluorescence), late phase (no specific fluorescence) or the presence of a ‘ghost’ with no nuclear matrix, with or without fragmentation of the mini cells.

A10 cells [3] = test: Frequency of endoapoptotic bodies after incubation with cytochalasin B; type: cell-based, Rat; conditions: 48 h, 2 μg/ml in culture medium
[4] = 0.02 mM hydrogen peroxide, acridine orange

Compound | nuclear changes in transmission electron microscopy (A10 cells [1]) | induction of classic apoptosis (A10 cells [2]; 0.02 mM hydrogen peroxide in the culture medium, followed over 24 hours) | persistence of red nuclear fluorescence (A10 cells [2]; [4]) [h] | time after apoptotic death until nuclei displayed red fluorescence (A10 cells [2]; [4]) [h] | temporal changes in nuclear fluorescence pattern compared with 0.2 mM (A10 cells [2]; 0.1 mM hydrogen peroxide, acridine orange) | effect on frequency of endoapoptotic bodies (A10 cells [3])
OO [hydrogen peroxide] | typical apoptotic changes in the nucleus such as chromatin marginization and condensation | classic apoptosis was induced | 3 to 6 | 2 to 3 | induced similar changes with a 24 h delay | –
C=C1[C@@H](C)[C@H]2[C@H](Cc3ccccc3)NC(=O)[C@]23OC(=O)/C=C/[C@H](O)CCC[C@@H](C)C/C=C/[C@H]3[C@@H]1O [cytochalasin B] | – | – | – | – | – | did not reduce the frequency of endoapoptotic bodies
